Assay results taken from patent publication US20230357856A1, “METHODS AND COMPOSITIONS FOR PROGNOSING GLIOBLASTOMA OR BREAST CANCER” (The Johns Hopkins University, priority 2020, published 2023).
Entries after “also recorded” stand apart in the source; their conditions may differ.

Test system: metastatic MDA-MB-231 breast cancer cells
Assay: Microfluidic Assay for Quantification of Cell Invasion (MAqCI), migration of breast cancer cells
Type: cell-based
Conditions: 5 µM, 13 hours post administration, MDA-MB-231 cells, compared to vincristine (VC); FIG. 24

## Fc1ccc([C@@H]2CCNC[C@H]2COc2ccc3c(c2)OCO3)cc1 [paroxetine]
  percentage of migratory cells in MAqCI: down to the levels of non-metastatic cells; also recorded: decreases the percent of migratory cells to the level of non-metastatic cells
